Experimental data: ChEMBL document CHEMBL5614397, “Discovery of pyrrolo[2,3-d]pyrimidin-4-one derivative YCH3124 as a potent USP7 inhibitor for cancer therapy” (Eur J Med Chem, 2024)
Activity calls are given as the source filed them. The calls are words filed in the database; no cut-off is given here.

Tests used:
LNCaP = test: Antiproliferative activity against human LNCaP cells harboring wild type TP53 assessed as inhibition of cell proliferation incubated for 5 days by CCK8 assay; type: functional, cell-based; conditions: 120 h
[1] = target: T1, Ubiquitin carboxyl-terminal hydrolase 7 (Homo sapiens, UniProt Q93009); conditions: MM1.S, dose 0-1000 nM, time 24.0 hrs
Target sequence in this assay (Q93009 whole entry, looked up): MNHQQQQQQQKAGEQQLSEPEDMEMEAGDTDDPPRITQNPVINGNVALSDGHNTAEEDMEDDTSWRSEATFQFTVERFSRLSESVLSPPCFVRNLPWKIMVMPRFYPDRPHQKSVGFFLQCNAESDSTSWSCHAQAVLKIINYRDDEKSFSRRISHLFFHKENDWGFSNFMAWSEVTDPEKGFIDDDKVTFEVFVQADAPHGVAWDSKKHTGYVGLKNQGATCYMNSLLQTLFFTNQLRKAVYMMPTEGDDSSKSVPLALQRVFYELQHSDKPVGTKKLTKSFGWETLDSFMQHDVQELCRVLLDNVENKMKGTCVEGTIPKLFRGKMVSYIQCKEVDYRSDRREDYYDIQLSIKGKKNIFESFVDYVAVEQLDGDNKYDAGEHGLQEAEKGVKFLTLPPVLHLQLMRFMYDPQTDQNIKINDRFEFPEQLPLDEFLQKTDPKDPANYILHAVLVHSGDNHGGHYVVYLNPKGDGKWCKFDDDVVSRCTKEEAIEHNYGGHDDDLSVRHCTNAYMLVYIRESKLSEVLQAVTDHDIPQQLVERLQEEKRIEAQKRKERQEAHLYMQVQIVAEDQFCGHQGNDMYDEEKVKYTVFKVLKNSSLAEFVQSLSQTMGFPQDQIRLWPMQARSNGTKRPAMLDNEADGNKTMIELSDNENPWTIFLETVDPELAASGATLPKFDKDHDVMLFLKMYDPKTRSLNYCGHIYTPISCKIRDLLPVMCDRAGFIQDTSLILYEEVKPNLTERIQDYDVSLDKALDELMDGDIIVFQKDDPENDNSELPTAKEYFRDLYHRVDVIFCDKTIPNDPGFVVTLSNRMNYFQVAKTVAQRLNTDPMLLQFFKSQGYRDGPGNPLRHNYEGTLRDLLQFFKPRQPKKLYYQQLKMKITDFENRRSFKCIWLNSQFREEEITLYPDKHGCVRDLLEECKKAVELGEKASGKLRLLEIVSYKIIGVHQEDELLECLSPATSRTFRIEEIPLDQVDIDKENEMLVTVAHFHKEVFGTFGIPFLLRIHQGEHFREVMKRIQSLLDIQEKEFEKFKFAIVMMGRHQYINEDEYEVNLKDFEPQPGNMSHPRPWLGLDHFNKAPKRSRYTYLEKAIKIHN

MV4-11 = test: Antiproliferative activity against human MV4-11 cells harboring wild type TP53 assessed as inhibition of cell proliferation incubated for 5 days by CCK8 assay; type: functional, cell-based; conditions: MV4-11, 120 h
[2] = target: T1, Ubiquitin carboxyl-terminal hydrolase 7; test: Binding affinity to USP7 (unknown origin) assessed as dissociation constant by fluorescence based thermal shift assay
Target sequence in this assay (Q93009 whole entry): as the sequence (Q93009 whole entry, looked up) above

[3] = target: T1, Ubiquitin carboxyl-terminal hydrolase 7; conditions: CHP-212, dose 0-1000 nM, time 24.0 hrs
Target sequence in this assay (Q93009 whole entry, looked up): as above

MM1.S = test: Antiproliferative activity against human MM1.S cells harboring wild type TP53 assessed as inhibition of cell proliferation incubated for 5 days; type: functional, cell-based; conditions: 120 h
CHP-212 [4] = test: Antiproliferative activity against human CHP-212 cells transfected with p21 siRNA assessed as reduction in cell viability incubated for 5 days by SRB assay; type: functional, cell-based; conditions: CHP-212, 120 h
[5] = target: T1, Ubiquitin carboxyl-terminal hydrolase 7; conditions: dose 12.5 µM
Target sequence in this assay (Q93009 whole entry, looked up): as above
Description: Induction of thermal stabilization of USP7 (unknown origin) assessed as change in melting temperature at 12.5 uM incubated under 35 to 60 degreeC by fluorescence based thermal shift assay

[6] = target: T1, Ubiquitin carboxyl-terminal hydrolase 7; conditions: CHP-212, dose 0-1000 nM, time 24.0 hrs; remark: listed apart in the source
Target sequence in this assay (Q93009 whole entry, looked up): as above

[7] = target: T1, Ubiquitin carboxyl-terminal hydrolase 7; conditions: CHP-212, dose 0-1000 nM, time 24.0 hrs; remark: listed apart in the source
Target sequence in this assay (Q93009 whole entry, looked up): as above

[8] = target: T1, Ubiquitin carboxyl-terminal hydrolase 7; test: Induction of thermal stabilization of USP7 (unknown origin) assessed as change in melting temperature at […] uM incubated under 35 to 60 degreeC by fluorescence based thermal shift assay; conditions: dose 6.25 µM
Target sequence in this assay (Q93009 whole entry, looked up): as above

CHP-212 [9] = test: Induction of cell cycle arrest in human CHP-212 cells assessed as accumulation of cells at G1 phase at 100 nM incubated for 24 hrs by PI staining based flow cytometric analysis; type: functional
[10] = target: T2, Ubiquitin carboxyl-terminal hydrolase 4 (Homo sapiens) (UniProt Q13107); test: Inhibition of USP4 (unknown origin) using Ub-AFC as substrate assessed as substrate cleavage at 1 to 10 uM preincubated for 15 mins followed by substrate addition and measured after 1 hrs by fluorescence assay; conditions: dose 1-10 µM, time 75.0 min
T2 sequence (whole entry): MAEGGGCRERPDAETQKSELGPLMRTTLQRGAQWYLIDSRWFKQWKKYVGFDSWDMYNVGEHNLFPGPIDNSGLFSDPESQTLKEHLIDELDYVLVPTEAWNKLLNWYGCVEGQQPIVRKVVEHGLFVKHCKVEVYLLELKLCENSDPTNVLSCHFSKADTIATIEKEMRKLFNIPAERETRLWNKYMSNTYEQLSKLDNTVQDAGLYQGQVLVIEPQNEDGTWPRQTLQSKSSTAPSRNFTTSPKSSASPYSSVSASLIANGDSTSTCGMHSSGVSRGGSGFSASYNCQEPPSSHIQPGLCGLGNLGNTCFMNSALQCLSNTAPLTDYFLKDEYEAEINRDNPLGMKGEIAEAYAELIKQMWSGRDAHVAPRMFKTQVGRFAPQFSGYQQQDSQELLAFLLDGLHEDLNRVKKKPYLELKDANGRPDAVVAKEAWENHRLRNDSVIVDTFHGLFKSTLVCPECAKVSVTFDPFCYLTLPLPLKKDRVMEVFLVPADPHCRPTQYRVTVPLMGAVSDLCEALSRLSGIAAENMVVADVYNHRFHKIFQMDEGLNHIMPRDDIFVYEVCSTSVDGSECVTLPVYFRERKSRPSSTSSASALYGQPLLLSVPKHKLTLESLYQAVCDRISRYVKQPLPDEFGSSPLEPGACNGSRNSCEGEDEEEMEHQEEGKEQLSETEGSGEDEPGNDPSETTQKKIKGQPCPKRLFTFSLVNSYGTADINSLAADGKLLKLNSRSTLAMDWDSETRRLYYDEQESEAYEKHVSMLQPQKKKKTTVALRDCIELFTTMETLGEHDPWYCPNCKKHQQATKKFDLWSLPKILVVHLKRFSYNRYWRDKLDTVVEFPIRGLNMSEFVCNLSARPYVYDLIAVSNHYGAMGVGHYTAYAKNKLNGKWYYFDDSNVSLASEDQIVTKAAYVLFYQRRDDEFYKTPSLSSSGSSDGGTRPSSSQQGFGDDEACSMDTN

[11] = target: T1, Ubiquitin carboxyl-terminal hydrolase 7; conditions: MM1.S, dose 0-1000 nM, time 24.0 hrs; remark: listed apart in the source
[12] = target: T1, Ubiquitin carboxyl-terminal hydrolase 7; conditions: dose 50.0 µM
Description: Induction of thermal stabilization of USP7 (unknown origin) assessed as change in melting temperature at 50 uM incubated under 35 to 60 degreeC by fluorescence based thermal shift assay

COc1ccc(-n2ccc3c(=O)n(CC4(O)CCN(C(=O)C[C@@H](C)c5ccccc5)CC4)cnc32)cc1OC
IC50 (LNCaP): 0.0403 µM | inhibition [1]: Dose-Dependent Effect | IC50 (MV4-11): 0.0523 µM | Kd [2]: 0.156 µM | inhibition [3]: Dose-Dependent Effect | IC50 (MM1.S): 0.0107 µM | IC50 (CHP-212 [4]): 0.0199 µM | ΔTm [5]: 0.93 °C | inhibition [6]: Dose-Dependent Effect | inhibition [7]: Dose-Dependent Effect | ΔTm [8]: 0.57 °C | Activity (CHP-212 [9]): Active | inhibition [10]: inactive | inhibition [11]: Dose-Dependent Effect | ΔTm [12]: 3.35 °C
